Patent publication USRE48267E1, “Variants of C-type natriuretic peptide” (priority 2009, dated 2020)
Like-named read-outs stand apart in the source and are kept apart here. Where a SMILES comes first, the peptide text is derived from it. Bridges are numbered along the chain shown (N, C = ends). The star is where a group is joined. Heptanoyl = CCCCCCC(=O)*

How the values were obtained:
NPR-B = biological target: T1, NPR-B (Mus musculus, UniProt Q6VVW5); test: stimulation of cGMP production in NIH3T3 cells; format: cell-based, murine; conditions: for cGMP Response rel. to 1 uM CNP22, 10 nM: NIH3T3 cells exposed to 10 nM peptide; for cGMP Response rel. to 1 uM CNP22, 10 nM / cGMP Response rel. to 1 uM CNP22, 1 uM: normalized to cell number and cGMP production in the presence of 1 uM wtCNP22; for cGMP Response rel. to 1 uM CNP22, 1 uM: NIH3T3 cells exposed to 1 uM peptide
T1 construct: Murine NIH3T3 cells express endogenously the CNP signaling receptor, NPR-B; endogenous in cells; host or cells: NIH3T3
T1 sequence (Q6VVW5 17-1047): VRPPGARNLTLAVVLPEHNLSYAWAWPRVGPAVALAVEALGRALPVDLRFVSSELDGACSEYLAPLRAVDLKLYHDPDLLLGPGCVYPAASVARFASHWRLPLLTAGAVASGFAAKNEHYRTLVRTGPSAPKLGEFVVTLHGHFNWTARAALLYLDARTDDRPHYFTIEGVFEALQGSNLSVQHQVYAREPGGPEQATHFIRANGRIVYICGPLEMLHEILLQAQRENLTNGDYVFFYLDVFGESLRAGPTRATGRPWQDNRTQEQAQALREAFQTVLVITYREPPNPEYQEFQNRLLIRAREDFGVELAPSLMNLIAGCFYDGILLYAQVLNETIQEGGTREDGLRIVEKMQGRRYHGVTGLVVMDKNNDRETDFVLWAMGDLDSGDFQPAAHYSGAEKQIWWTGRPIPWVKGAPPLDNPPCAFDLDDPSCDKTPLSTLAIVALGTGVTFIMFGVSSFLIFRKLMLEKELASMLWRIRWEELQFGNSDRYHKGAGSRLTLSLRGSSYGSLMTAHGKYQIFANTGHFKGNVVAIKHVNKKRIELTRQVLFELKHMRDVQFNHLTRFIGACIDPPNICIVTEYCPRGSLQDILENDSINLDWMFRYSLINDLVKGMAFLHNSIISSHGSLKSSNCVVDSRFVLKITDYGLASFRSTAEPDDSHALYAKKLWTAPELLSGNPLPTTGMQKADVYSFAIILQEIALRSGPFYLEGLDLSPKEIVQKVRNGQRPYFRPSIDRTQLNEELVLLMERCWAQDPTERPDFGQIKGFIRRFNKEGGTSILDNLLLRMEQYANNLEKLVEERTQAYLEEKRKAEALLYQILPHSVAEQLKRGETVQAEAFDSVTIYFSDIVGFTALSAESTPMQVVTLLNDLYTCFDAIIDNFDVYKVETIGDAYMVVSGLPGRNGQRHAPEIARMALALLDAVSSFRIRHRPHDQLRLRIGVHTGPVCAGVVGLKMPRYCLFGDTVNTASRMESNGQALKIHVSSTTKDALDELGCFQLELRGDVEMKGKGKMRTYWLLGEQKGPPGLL
Procedure: To determine the functional activity of CNP variants, the production of cGMP was measured in NIH3T3 cells exposed to the CNP variants. Murine NIH3T3 cells express endogenously the CNP signaling receptor, NPR-B, which shares 98% protein sequence identity with human NPR-B. NIH3T3 cells were cultured in high glucose Dulbecco's Modified Eagle Medium supplemented with 10% fetal calf serum and antibiotics at 37° C. with 5% CO2). Twenty four to 48 hours prior to signaling, cells were passaged to 12-well plates with a density of 2-5×10^5 cells per well at the time of the assay. CNP variants were resuspended in 1 mM HCl to a stock concentration of 1 mg/mL (455 uM for wtCNP22) and subsequently diluted to a 30 uM working stock solution with phosphate-buffered saline (PBS). Ten-fold serial dilutions were prepared in phosphate-buffered saline. Culture medium was removed from the cells and replaced with 0.4 mL PBS/Dulbecco's modified Eagle medium (50/50, v/v) containing 0.75 mM isobutylmethylxanine. Plates were incubated at 37° C., 5% CO2 for 15 minutes before addition of 0.2 mL CNP variant in PBS and continued incubation at 37° C. for 15 minutes. Reactions were stopped by the addition of 0.2 mL lysis buffer supplied with the CatchPoint cGMP assay kit (Molecular Devices), and cGMP production was determined with the CatchPoint cGMP Assay (Molecular Devices). All stimulation experiments were performed in duplicate.
Tables 1-4 summarize the ability of CNP variants having backbone or side chain modifications, amino acid substitutions, N-terminal amino acid extensions, and/or N-terminal PEGylation, respectively, to stimulate cGMP production in NIH3T3 cells. In all four tables, the values for cGMP production in NIH3T3 cells exposed to 10 nM or 1 uM CNP variant are normalized to cell number and cGMP production in the presence of 1 uM wtCNP22.

Recombinant human NEP = Recombinant human NEP (Homo sapiens, UniProt P08473); test: in vitro NEP cleavage assay (disappearance of non-cleaved CNP variant); conditions: for NEP Cleavage (t1/2, min): 100 uM peptide, 1 ug/mL NEP, 0.1 M Tris pH 7, 37° C., adjusted t1/2, CNP22 normalized to 80 min
Procedure: To determine the effects of amino acid substitutions, amino acid extensions, backbone modifications, side chain modifications and PEGylation on the susceptibility of CNP variants to neutral endopeptidase (NEP) cleavage, peptide cleavage assays were carried out using an in vitro assay that monitored disappearance of the non-cleaved CNP variant.
Recombinant human NEP (1 ug/mL final concentration) was added to 100 uM CNP variant diluted in 0.1 M Tris, pH 7. The reaction mixture was incubated at 37° C. for various periods of time, and the reaction was quenched with EDTA (10 mM final) followed by heat denaturation. The reaction mixture was reduced and then the reaction products were analyzed using HPLC and mass spectroscopy. The half-life of the CNP variant was calculated based on the disappearance of intact CNP variant over time.

Recombinant human NEP, sequence (P08473 whole entry): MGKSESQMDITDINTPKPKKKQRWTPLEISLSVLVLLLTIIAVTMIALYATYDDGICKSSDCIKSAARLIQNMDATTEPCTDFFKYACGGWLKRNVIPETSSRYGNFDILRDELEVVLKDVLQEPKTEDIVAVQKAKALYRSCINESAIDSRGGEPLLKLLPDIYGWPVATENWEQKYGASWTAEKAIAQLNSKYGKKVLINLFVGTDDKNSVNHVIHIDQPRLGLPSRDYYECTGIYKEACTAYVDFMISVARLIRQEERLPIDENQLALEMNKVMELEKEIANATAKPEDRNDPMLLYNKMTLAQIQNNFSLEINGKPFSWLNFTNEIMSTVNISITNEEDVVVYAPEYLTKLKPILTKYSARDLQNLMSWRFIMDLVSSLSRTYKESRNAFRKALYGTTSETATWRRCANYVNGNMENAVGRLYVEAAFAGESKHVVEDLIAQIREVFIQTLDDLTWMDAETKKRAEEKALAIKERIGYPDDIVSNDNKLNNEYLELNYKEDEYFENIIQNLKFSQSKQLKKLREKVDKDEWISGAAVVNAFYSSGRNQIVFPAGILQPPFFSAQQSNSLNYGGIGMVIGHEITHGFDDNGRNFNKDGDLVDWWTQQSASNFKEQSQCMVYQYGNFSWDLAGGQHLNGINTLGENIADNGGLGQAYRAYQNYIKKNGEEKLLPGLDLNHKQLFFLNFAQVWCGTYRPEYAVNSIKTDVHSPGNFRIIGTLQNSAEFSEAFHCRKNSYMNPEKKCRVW

resistance to NEP cleavage (in words) (Recombinant human NEP)	SMILES	cGMP Response rel. to 1 uM CNP22, 10 nM (NPR-B)	cGMP Response rel. to 1 uM CNP22, 1 uM (NPR-B)	NEP Cleavage (t1/2, min) (Recombinant human NEP)	NPR-B stimulation activity / cGMP production compared with wtCNP22 (in words) (NPR-B; NIH3T3 cells)	resistance to NEP cleavage (in words) (Recombinant human NEP; in vitro NEP assay, assay period 160 minutes)	resistance to cleavage at the Cys6-Phe7 bond relative to wtCNP22 (Recombinant human NEP)	half-life compared to those for Analogs A, B, F and H (Recombinant human NEP; human)	half-life in comparison to wtCNP22 (Recombinant human NEP; human)
greatest resistance to NEP cleavage	CC[C@H](C)[C@@H]1NC(=O)[C@H](CCCNC(=N)N)NC(=O)[C@H](CC(=O)O)NC(=O)[C@H](CC(C)C)NC(=O)[C@H](CCCCN)NC(=O)[C@H](CC(C)C)NC(=O)CNC(=O)[C@H](Cc2ccccc2)NC(=O)[C@@H](NC(=O)CNC(=O)[C@H](CCCNC(=N)N)NC(=O)[C@H](CO)NC(=O)[C@H](CC(C)C)NC(=O)CN)CSSC[C@@H](C(=O)O)NC(=O)CNC(=O)[C@H](CC(C)C)NC(=O)CNC(=O)[C@H](CO)NC(=O)[C@H](CCSC)NC(=O)[C@H](CO)NC(=O)[C@H](CO)NC1=O [Analog BK, CNP22, K4R, G15S] (H-GLSRGCFGLKLDRISSMSGLGC-OH; disulfide 6-22; N-terminus and C-terminus assumed)	13 ± 1	71 ± 11	≥160 min					
	CCCCCCC(=O)N[C@@H](CCC(=O)O)C(=O)N[C@@H](CC(C)C)C(=O)N[C@@H](CO)C(=O)N[C@@H](CCCCN)C(=O)NCC(=O)N[C@H]1CSSC[C@@H](C(=O)O)NC(=O)CNC(=O)[C@H](CC(C)C)NC(=O)CNC(=O)[C@H](CO)NC(=O)[C@H](CCSC)NC(=O)[C@H](CO)NC(=O)CNC(=O)[C@H]([C@@H](C)CC)NC(=O)[C@H](CCCNC(=N)N)NC(=O)[C@H](CC(=O)O)NC(=O)[C@H](CC(C)C)NC(=O)[C@H](CCCCN)NC(=O)[C@H](CC(C)C)NC(=O)CNC(=O)[C@H](Cc2ccccc2)NC1=O [Analog BB, Heptanoic acid (N-term.)-CNP22, G1E] (Heptanoyl-ELSKGCFGLKLDRIGSMSGLGC-OH; disulfide 6-22)	32 ± 4	84 ± 19	45 to 65 min	comparable NPR-B stimulation activity as wtCNP22				
	CC[C@@H](C)[C@H]1NC(=O)[C@@H](CCCNC(=N)N)NC(=O)[C@@H](CC(=O)O)NC(=O)[C@@H](CC(C)C)NC(=O)[C@@H](CCCCN)NC(=O)[C@@H](CC(C)C)NC(=O)CNC(=O)[C@@H](Cc2ccccc2)NC(=O)[C@H](NC(=O)CNC(=O)[C@@H](CCCCN)NC(=O)[C@@H](CO)NC(=O)[C@@H](CC(C)C)NC(=O)CN)CSSC[C@H](C(=O)O)NC(=O)CNC(=O)[C@@H](CC(C)C)NC(=O)CNC(=O)[C@@H](CO)NC(=O)[C@@H](CCSC)NC(=O)[C@@H](CO)NC(=O)CNC1=O [Analog N, D-CNP22 (all D-amino acids)]	2	1	>>160 min		greatest resistance to NEP cleavage			
greatest resistance to NEP cleavage	CC[C@H](C)[C@@H]1NC(=O)[C@H](CCCNC(=N)N)NC(=O)[C@H](CC(=O)O)NC(=O)[C@H](CC(C)C)NC(=O)[C@H](CCCCN)NC(=O)[C@H](CC(C)C)NC(=O)CNC(=O)[C@H](Cc2ccccc2)NC(=O)[C@@H](NC(=O)CNC(=O)[C@H](CCCNC(=N)N)NC(=O)[C@H](CO)NC(=O)[C@H](CC(C)C)NC(=O)CN)CSSC[C@@H](C(=O)O)NC(=O)CNC(=O)[C@H](CC(C)C)NC(=O)CNC(=O)[C@H](CO)NC(=O)[C@H](CCSC)NC(=O)[C@H](CO)NC(=O)[C@H](CC(N)=O)NC1=O [Analog BJ, CNP22, K4R, G15N] (H-GLSRGCFGLKLDRINSMSGLGC-OH; disulfide 6-22; N-terminus and C-terminus assumed)	4	41						
	CC[C@H](C)[C@@H]1NC(=O)[C@H](CCCNC(=N)N)NC(=O)[C@H](CC(=O)O)NC(=O)[C@H](CC(C)C)NC(=O)[C@H](CCCCN)NC(=O)[C@H](CC(C)C)NC(=O)CNC(=O)[C@H](Cc2cccc(Cl)c2)NC(=O)[C@@H](NC(=O)CNC(=O)[C@H](CCCCN)NC(=O)[C@H](CO)NC(=O)[C@H](CC(C)C)NC(=O)CN)CSSC[C@@H](C(=O)O)NC(=O)CNC(=O)[C@H](CC(C)C)NC(=O)CNC(=O)[C@H](CO)NC(=O)[C@H](CCSC)NC(=O)[C@H](CO)NC(=O)CNC1=O [Analog G]	17	93	135 min			resistance or improved resistance	1.5-2.5 fold	about 1.5 times
substantially shorter half-life	CC[C@H](C)[C@@H]1NC(=O)[C@H](CCCNC(=N)N)NC(=O)[C@H](CC(=O)O)NC(=O)[C@H](CC(C)C)N(C)C(=O)[C@H](CCCCN)NC(=O)[C@H](CC(C)C)N(C)C(=O)CNC(=O)[C@H](Cc2ccccc2)NC(=O)[C@@H](NC(=O)CNC(=O)[C@H](CCCCN)NC(=O)[C@H](CO)NC(=O)[C@H](CC(C)C)NC(=O)CN)CSSC[C@@H](C(=O)O)NC(=O)CNC(=O)[C@H](CC(C)C)N(C)C(=O)CNC(=O)[C@H](CO)NC(=O)[C@H](CCSC)NC(=O)[C@H](CO)NC(=O)CNC1=O [Analog L, CNP22, N-methyl-L9, N-methyl-L11, N-methyl-L20]	18	10						
	CC[C@H](C)[C@@H]1NC(=O)[C@H](CCCNC(=N)N)NC(=O)[C@H](CC(=O)O)NC(=O)[C@H](CC(C)C)NC(=O)[C@H](CCCCN)NC(=O)[C@H](CC(C)C)N(C)C(=O)CNC(=O)[C@H](Cc2ccccc2)NC(=O)[C@@H](NC(=O)CNC(=O)[C@H](CCCCN)NC(=O)[C@H](CO)NC(=O)[C@H](CC(C)C)NC(=O)CN)CSSC[C@@H](C(=O)O)NC(=O)CNC(=O)[C@H](CC(C)C)N(C)C(=O)CNC(=O)[C@H](CO)NC(=O)[C@H](CCSC)NC(=O)[C@H](CO)NC(=O)CNC1=O [Analog K, CNP22, N-methyl-L9, N-methyl-L20]	1	1	80 min					
greatest resistance to NEP cleavage	CC[C@H](C)[C@@H]1NC(=O)[C@H](CCCNC(=N)N)NC(=O)[C@H](CC(=O)O)NC(=O)[C@H](CC(C)C)N(C)C(=O)[C@H](CCCCN)NC(=O)[C@H](CC(C)C)N(C)C(=O)CNC(=O)[C@H](Cc2ccccc2)NC(=O)[C@@H](NC(=O)CNC(=O)[C@H](CCCCN)NC(=O)[C@H](CO)NC(=O)[C@H](CC(C)C)NC(=O)CN)CSSC[C@@H](C(=O)O)NC(=O)CNC(=O)[C@H](CC(C)C)NC(=O)CNC(=O)[C@H](CO)NC(=O)[C@H](CCSC)NC(=O)[C@H](CO)NC(=O)CNC1=O [Analog M, CNP22, N-methyl-L9, N-methyl-L11]	1	11	>>160 min					
